Measurements reported in patent publication US7468255B2, “Method for assaying for natural killer, cytotoxic T-lymphocyte and neutrophil-mediated killing of target cells using real-time microelectronic cell sensing technology” (ACEA Biosciences, priority 2002, dated 2008).

Tests used:
[1] = tested on: various cell types (listed in Table 1); assay: RT-CES profiling of dynamic cell responses to anti-cancer drugs; format: cell-based; conditions: for cell index curve pattern: cell lines of Table 1
Protocol: FIGS. 10A and B show the responses of various cell types (listed in Table 1) to olomoucine treatment as monitored using a cell-substrate imepdnace monitoring system of the presnet invention. The cellular responses were continuously monitored at 15 or 30 or 60 minutes time interval before and after treatment with olomoucine. […] Take the treatment of olomoucine at 100 uM as an example. […] The “near-constant” cell index curves were also observed for cells treated with roscovitine, which is another compound causing cell cycle arrest. The cell index curves shown in FIGS. 10A and 10B are strikingly different from the cell index curves shown in FIGS. 9A and 9B, and FIGS. 11A and 11B, where compounds follow different mechanism of compound action.
The cellular responses were continuously monitored at 15 or 30 or 60 minutes time interval before and after treatment with doxorubicin. […] Take the treatment of doxoorubincin at 3.13 uM as an example. For most of cell types tested, initially after the treatment, cell index increased with time in similar way to the cell index from DMSO control wells. After 10-20 hrs, depending on cell type, the cell index reached a peak and started decreasing with time. From that time on, the cell index monotonically decreases. […] Both Doxorubicin and 5-Fluorouacil act on cells through effects on DNA replication or topology.
The cellular responses were continuously monitored at 15 or 30 or 60 minutes time interval before and after treatment with paclitaxel. […] Take the treatment of palitaxel at 0.78-12.5 nM range as examples. […] For one particular cell index curve, after the cell index reached a minimum, it then reversed its decreasing trend and started to increase. […] All these compounds—i.e., paclitaxel, vinblastin and colcemid, are so called mitotic poisons and follow similar mechanism of drug action. For example, both vinblastin and paclitaxel act on microtubule dynamics within a cell.
In this study, we used the RT-CES system to dynamically monitor cancer cell responses to chemotherapeutic compounds with characterized mechanisms, and to profile the specific cell response patterns. Thirteen cancer cell lines including cancers of breast, prostate, lung, colon, ovary, kidney, fibroblast, and central nervous system were tested (Table 1). Each cancer cell type was treated with 11 chemotherapeutic compounds, classified as DNA damaging agents, protein kinase inhibitors, anti-mitotic drugs, cell cycle specific inhibitors, protein synthesis inhibitors plus a compound of unknown category (Table 2). Dynamic and dose dependent cell-compound interaction patterns were characterized and summarized for all the tested cell lines and compounds. The profiles for three drugs, doxorubicin, olomoucine and paclitaxel against a panel of 12 different cell lines are presented in FIGS. 9, 10 and 11, respectively. In addition, we characterized the biological effect of these compounds on cells by monitoring cell cycle progression, cell viability and morphological status of the cells in an attempt to correlate specific cellular response to the shape of the cell index trace (FIGS. 12, 13 and 14). Furthermore we calculated the time-dependent IC-50 values for each compound against the various cell lines (FIG. 15) and developed an algorithm to calculate Cell Change Index to profile the dynamic cell response of the different chemotherapeutic agents across the different cell lines. Cell Change Index was calculated for the dynamic RT-CES responses of different cell lines to different chemotherapeutic agents using the definitions described above. Based on the time-dependent values of CCI, each CCI value region across the time scale is represented by black-white shading-based coding. […]

[2] = tested on: A549 cells; format: cell-based; conditions: for effect of inhibitor alone on A549 baseline: A549 target cells without NK cells
Protocol: (§1) In order to observe the kinetics of drug interaction with target cells, A549 non-small lung cancer cells were seeded in ACEA 96× e-plate™ and continuously monitored until the cells reached the log growth phase at which point different concentrations of paclitaxel were added to the cells at the indicated final concentration. […] Remarkably, the cells recover from the initial cytotoxic effect of the drug and start to re-proliferate. While it remains to be determined if this phenomenon is due to metabolism and inactivation of paclitaxel or due to the emergence of paclitaxel-resistant subpopulation, this experiment clearly exemplifies the tremendous advantage of real-time measurement which is offered by the RT-CES system and allows the user to the opportunity to observe and assess the entire history of drug interaction with the target cells which provides further information in addition to cell viability or cytotoxicity. The phenomenon observed in FIG. 20A would've been easily missed by traditional single-point assays such as MTT.
Yet another major advantage of using the RT-CES system to continually monitor the interaction of drugs with target cells is that the user can obtain insight into the mechanism of action of the drug of interest. […] The cells were treated with either DMSO as the vehicle control or with 100 μM Olomoucine which is a CDK inhibitor and induces cell cycle arrest either at G1→S transition or at the G2→M transition, depending on the cell line. […] The control cells treated with DMSO continue to proliferate until they reach confluence, at which time they are contact inhibited and the Cell Index recording levels off. […]. Taken together, using the RT-CES system to dynamically monitor drug interaction with the target cells offers the user the opportunity to understand the mechanism of drug action and its mode of interaction with the target cell.

[3] = tested on: NK-92-mediated cytolysis of A549 cells; assay: Inhibition of NK-mediated cytolysis of target cells by signaling pathway inhibitors (RT-CES); format: cell-based, human; conditions: NK-92 pre-incubated with inhibitor, E/T 16:1
Protocol: FIG. 31. Specificity of NK-92 mediated cytolysis of target cells. (A) A549 cells were seeded in the wells of E-plates. Twenty four hours after seeding NK-cells at a density of 16:1 (E/T ratio) were pre-incubated with the different concentrations of the MEK inhibitor PD 98059 for thirty minutes and then added to A549 cells at the indicated time point (arrow). The viability of A549 cells were continually monitored using the RT-CES system. (B) The extent of NK-92 mediated cytolystic activity in the presence of MEK inhibitor was calculated at the indicated times post-NK addition as described in materials and methods section. (C) The effect of P13 Kinase inhibitor Wortmannin on NK-92 mediated cytolysis of A549 cells. […] (D) Percent cytolytic activity of NK-92 cells was calculated at the end of the experiment described in (C).
In this example, a microelectronic sensor-based platform, the RT-CES (real time electronic sensing) system, is introduced for label free assessment of natural killer (NK) cell-mediated cytolytic activity. The RT-CES system was used to dynamically and quantitatively monitor NK-mediated cytolysis of 9 different target cell lines, including cancer cell lines commonly used in laboratories. […] Cell growth was dynamically monitored using the RT-CES system for a period of 24-34 hours, depending on the experiment until they reached log growth phase and formed a monolayer. […]

[4] = tested on: A549 cells; assay: Flow cytometry cell cycle analysis of A549 cells; format: cell-based, Human; conditions: 100 μM
[5] = tested on: H460 cells; assay: RT-CES time-dependent cell index of drug-treated H460 cells; format: cell-based, human
Protocol: The device was positioned on a device station that was located in an incubator maintaining conditions of 37 degrees C. and 5% CO2. […] The cell-substrate impedance monitoring system calculated the cell index at each time point monitored and plotted the cell index as a function of time.
The device was positioned on a device station that was located in an incubator maintaining conditions of 37 degrees C. and 5% CO2.

[6] = tested on: A549 cells; assay: Annexin V staining of A549 cells; format: cell-based, Human; conditions: 12.5 nM for 20 hours
Protocol: FIG. 20. Dynamic monitoring of drug interaction with target cells using a cell-substrate imepdnace monitoring system of the presnet invention. (A) A549 cells were seeded in a device of present invention at a density of 10,000 cells per well and the cells were continuously monitored up to 24 hours at which point paclitaxel was added at the indicated final concentrations. (B) Annexin V staining of A549 cells treated with DMSO or 12.5 nM paclitaxel for 20 hours.
as §1, with “The phenomenon observed in FIG. 20A would've been easily missed by traditional single-point assays such as MTT.” left out

[7] = tested on: Cos-7 cells; assay: RT-CES monitoring of morphological changes in Cos-7 cells; format: cell-based; conditions: serum starved Cos-7 cells; 50 nanograms/mL
Protocol: Cells were seeded in wells of a 16 well monitoring device (16× E-Plate) of the present invention that engaged a device station of a cell-substate monitoring system. The device station was positioned in an incubator held at 37 degrees C. and 5% CO2. The cells were serum starved for 8 hours and then stimulated with 50 nanograms/mL of EGF. […] Impedance was monitored at 3 minute intervals for 2 hours and then at 1 hour intervals for 14 hours. The cell index was calculated by the system and plotted as a function of time. […] The arrow indicates the point of EGF addition.

Compound: O=c1[nH]cc(F)c(=O)[nH]1 [5-Fluorouracil]
- cell index curve pattern [1]: going up first and then going down

Compound: COc1cccc(-c2cc(=O)c3ccccc3o2)c1N [PD98059]
- effect of inhibitor alone on A549 baseline [2]: minimal effect on the baseline
- inhibition of NK-92-mediated cytolysis of A549 cells [3]: dose-dependently inhibited

Compound: COC[C@H]1OC(=O)c2coc3c2[C@@]1(C)C1=C(C3=O)[C@@H]2CCC(=O)[C@@]2(C)C[C@H]1OC(C)=O [Wortmannin]
- effect of inhibitor alone on A549 baseline [2]: minimal effect on the baseline
- inhibition of NK-92-mediated cytolysis of A549 cells [3]: dose-dependently inhibited

Compound: CN[C@H]1CCc2cc(OC)c(OC)c(OC)c2-c2ccc(OC)c(=O)cc21 [colcemid]
- cell index curve pattern [1]: going down and then going up

Compound: COc1cccc2c1C(=O)c1c(O)c3c(c(O)c1C2=O)C[C@@](O)(C(=O)CO)C[C@@H]3O[C@H]1C[C@H](N)[C@H](O)[C@H](C)O1 [doxorubicin]
- time after treatment at which cell index reached a peak and started decreasing ([1]; 3.13 uM, most cell types tested, depending on cell type): 10 to 20 h

Compound: Cn1cnc2c(NCc3ccccc3)nc(NCCO)nc21 [olomoucine]
- cell index response ([1]; 100 uM, significant number of cell types tested, for some length of time (10, 20 or 30 hrs)): near-constant cell index
- Cell Index trace ([2]; exponentially growing A549 cells, 100 μM): level off and remain in a steady state
- cell cycle analysis by flow cytometry [4]: cell cycle arrest at the G2→M transition

Compound: CC(=O)O[C@H]1C(=O)[C@@]2(C)[C@H]([C@H](OC(=O)c3ccccc3)[C@]3(O)C[C@H](OC(=O)[C@H](O)[C@@H](NC(=O)c4ccccc4)c4ccccc4)C(C)=C1C3(C)C)[C@]1(OC(C)=O)CO[C@@H]1C[C@@H]2O [paclitaxel]
- time over which cell index exhibited a near-constant value ([5]; 33 nM): about 15 hours
- cell index change after compound addition ([5]; concentration between 67 nM and 500 nM): gradual decrease in cell index
- duration of initial decrease in cell index ([1]; 0.78-12.5 nM): 15 to 20 h
- duration of initial cell index decrease before cell index increase ([1]; nM concentration, varies between cell types): about 15 hrs
- effect on A549 cell index ([2]; human): initially induces a cytotoxic effect
- Annexin V staining [6]: cell death

Compound: CC[C@H](CO)Nc1nc(NCc2ccccc2)c2ncn(C(C)C)c2n1 [roscovitine]
- cell index curve pattern [1]: near-constant

Compound: CC[C@]1(O)C[C@@H]2CN(CCc3c([nH]c4ccccc34)[C@@](C(=O)OC)(c3cc4c(cc3OC)N(C)[C@H]3[C@@](O)(C(=O)OC)[C@H](OC(C)=O)[C@]5(CC)C=CCN6CC[C@]43[C@@H]65)C2)C1 [vinblastin]
- cell index curve pattern [1]: going down and then going up

Compound: epidermal growth factor [EGF]
- cell index response (morphological change) [7]: initial jump in cell index
